Experimental data taken from PubChem BioAssay AID513 (SGCOxCompounds, 2006).

Target: Casein kinase I isoform gamma-1 (Homo sapiens) (UniProt Q9HCP0)
Assay: CSNK1G1 binders by thermal stabilization, biophysical, DSF, SYPRO orange, recombinant protein (AID 513)
Settings: at 10 µM, protein 2 µM, hits give high values

Sequence of Casein kinase I isoform gamma-1 (Homo sapiens) (Q9HCP0 whole entry, looked up, canonical isoform): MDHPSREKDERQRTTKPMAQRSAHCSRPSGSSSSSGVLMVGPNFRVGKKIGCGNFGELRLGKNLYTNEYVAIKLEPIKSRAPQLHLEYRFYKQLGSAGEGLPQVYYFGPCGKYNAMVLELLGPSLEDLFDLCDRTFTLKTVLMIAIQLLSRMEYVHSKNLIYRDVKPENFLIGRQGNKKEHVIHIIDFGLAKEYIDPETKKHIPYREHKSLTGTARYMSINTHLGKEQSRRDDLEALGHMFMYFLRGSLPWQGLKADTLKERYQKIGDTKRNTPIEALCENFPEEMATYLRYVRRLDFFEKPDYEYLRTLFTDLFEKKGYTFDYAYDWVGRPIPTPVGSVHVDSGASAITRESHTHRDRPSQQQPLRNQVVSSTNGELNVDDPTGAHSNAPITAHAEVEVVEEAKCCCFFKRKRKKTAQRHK

SMILES | Tm shift [Celsius]
CCN(CC)CCNC(=O)c1c(C)[nH]c(/C=C2\C(=O)Nc3ccc(Cl)cc32)c1C | 4.3
CC(C)n1cnc2c(Nc3cccc(Cl)c3)nc(NCCO)nc21 | 6.1
COc1cc(/C=C/C(=O)CC(=O)/C=C/c2ccc(O)c(OC)c2)ccc1O | 4.5
O=Nc1c(-c2c(O)[nH]c3cc(Br)ccc23)[nH]c2ccccc12 | 3.5
COc1ccc(Nc2nc(N)c(C(=O)c3ccc(OC)cc3)s2)cc1 | 5.6
O=c1c(O)c(-c2ccc(O)c(O)c2)oc2cc(O)cc(O)c12 | 3.2
O=Nc1c(-c2c(O)[nH]c3ccc(S(O)(O)O)cc23)[nH]c2ccccc12 | 4
O=c1[nH]c(O)c2c1c1c3ccccc3nc1n1cncc21 | 4.3
NC1=N/C(=C2\CCNC(=O)c3[nH]ccc32)C(=O)N1 | 3.6
Nc1nc(Nc2ccccc2F)sc1C(=O)c1ccc(Br)cc1 | 3.9
Nc1nc(Nc2ccc(F)cc2)sc1C(=O)c1ccccc1 | 4.1
Nc1nc(Nc2ccccc2)sc1C(=O)c1ccc(F)cc1 | 3.9
Oc1ccc(Nc2nccn3c(-c4cn[nH]c4)cnc23)cc1 | 3.2
COc1ccc(Nc2nc(N)c(C(=O)c3ccc(Cl)cc3)s2)cc1 | 4.1
Nc1nc(Nc2cccc(Cl)c2)sc1C(=O)c1ccc(F)cc1 | 5.3
Cc1cc(Nc2nc(-c3ccccc3)nc3ccccc23)n[nH]1 | 3.3
CCn1cnc2c(Nc3cccc(Cl)c3)nc(N[C@@H]3CCCC[C@@H]3N)nc21 | 5.8
NC1=N/C(=C2/CCNC(=O)c3[nH]c(Br)cc32)C(=O)N1 | 5.7
N#C/C(=C1\Nc2ccccc2S1)c1ccnc(NCCc2cccnc2)n1 | 3.7
CSc1nc(-c2ccnc(NC(C)c3ccccc3)c2)c(-c2ccc(F)cc2)[nH]1 (configuration not stated) | 3.6
NC(=O)c1ccc(-c2nc(-c3ccc4c(c3)OCCO4)c(-c3ccccn3)[nH]2)cc1 | 6.1
Clc1ccc(Nc2ncc(-c3cn[nH]c3)n3ccnc23)cc1 | 3.6
